Laboratory results as given in patent US9211310B2, “Use of a Chinese medicine composition in preparing medicaments for treating secondary prevention of myocardial infarction” (TASLY PHARMACEUTICAL GROUP CO., LTD, priority 2010, dated 2015).

Test system: patients after acute myocardial infarction
Experiment: TCM symptom score, total and single (chest pain, chest tightness, short breath, fatigue, palpitation, spontaneous perspiration, pale complexion), same clinical trial
Type: in vivo, human
Set-up: total score of TCM symptom, Mean / total score of TCM symptom, Min / total score of TCM symptom, Max / total score of TCM symptom, Md / change of total score of TCM symptom, Mean / change of total score of TCM symptom, Max / change of total score of TCM symptom, Md: scale not given here
Conditions: FAS
From the text: 3508 patients who were in accordance with the diagnostic standards of AMI for 28 days to 2 years and differentiated as Qi deficiency and blood stagnation syndrome by TCM were studied. 0.5 g Chinese medicine composition prepared by the method of EXAMPLE 1 (Coded as QSYQ) was administrated half an hour after meal, 3 times per day.
They included the overall survival time, angina pectoris score, TCM symptom score and life quality score, where angina pectoris score, TCM symptom score and life quality score were evaluated at randomization, in 1st, 3rd, 6th, 9th, 12th month after treatment and 18th month after follow-up.
The analysis method referred to the angina pectoris score.

[1] = 9 months after treatment-baseline
[2] = 12 months after treatment-baseline

SMILES: CC(=O)Oc1ccccc1C(=O)O [Control group, aspirine]
- change of pale complexion −1, number of patients [1]: 59
- change of pale complexion −1, percent of patients [1]: (3.45%)
- change of palpitation 0, number of patients [1]: 948
- change of palpitation 0, percent of patients [1]: (55.44%)
- change of palpitation 1, number of patients [1]: 557
- change of palpitation 1, percent of patients [1]: (32.57%)
- change of palpitation 2, number of patients [1]: 76
- change of palpitation 2, percent of patients [1]: (4.44%)
- change of palpitation 3, number of patients [1]: 7
- change of palpitation 3, percent of patients [1]: (0.41%)
- change of palpitation −1, percent of patients [1]: (6.84%)
- change of palpitation −2, number of patients [1]: 5
- change of palpitation −2, percent of patients [1]: (0.29%)
- change of palpitation −3, number of patients [1]: 0
- change of palpitation −3, percent of patients [1]: (0.00%)
- change of short breath 0, % of patients [1]: (59.06%)
- change of short breath 0, number of patients [1]: 1010
- change of short breath 2, % of patients [1]: (30.35%)
- change of short breath 2, number of patients [1]: 519
- change of short breath 4, % of patients [1]: (3.57%)
- change of short breath 4, number of patients [1]: 61
- change of short breath 6, % of patients [1]: (0.47%)
- change of short breath 6, number of patients [1]: 8
- change of short breath −2, % of patients [1]: (6.26%)
- change of short breath −2, number of patients [1]: 107
- change of short breath −4, % of patients [1]: (0.23%)
- change of short breath −4, number of patients [1]: 4
- change of short breath −6, % of patients [1]: (0.06%)
- change of short breath −6, number of patients [1]: 1
- change of spontaneous perspiration 0, number of patients [1]: 910
- change of spontaneous perspiration 0, percent of patients [1]: (53.25%)
- change of spontaneous perspiration 1, number of patients [1]: 491
- change of spontaneous perspiration 1, percent of patients [1]: (28.73%)
- change of spontaneous perspiration 2, number of patients [1]: 113
- change of spontaneous perspiration 2, percent of patients [1]: (6.61%)
- change of spontaneous perspiration 3, number of patients [1]: 31
- change of spontaneous perspiration 3, percent of patients [1]: (1.81%)
- change of spontaneous perspiration −1, number of patients [1]: 154
- change of spontaneous perspiration −1, percent of patients [1]: (9.01%)
- change of spontaneous perspiration −2, number of patients [1]: 10
- change of spontaneous perspiration −2, percent of patients [1]: (0.59%)
- change of spontaneous perspiration −3, number of patients [1]: 0
- change of spontaneous perspiration −3, percent of patients [1]: (0.00%)
- change of total score of TCM symptom, Max [1]: 15.00
- change of total score of TCM symptom, Md [1]: −4.00
- change of total score of TCM symptom, Mean [1]: −4.52
- change of total score of TCM symptom, Min [1]: −33.00
- change of short breath 0, number of patients (12 months after treatment): 955
- distribution of total score of TCM symptom: Medium, number of patients (12 months after treatment): 235
- distribution of total score of TCM symptom: Medium, percentage of patients (12 months after treatment): (16.31%)
- distribution of total score of TCM symptom: Mild, number of patients (12 months after treatment): 1205
- distribution of total score of TCM symptom: Mild, percentage of patients (12 months after treatment): (83.62%)
- distribution of total score of TCM symptom: Severe, number of patients (12 months after treatment): 1
- distribution of total score of TCM symptom: Severe, percentage of patients (12 months after treatment): (0.07%)
- fatigue score 0, % of patients (12 months after treatment): (36.67%)
- fatigue score 0, number of patients (12 months after treatment): 630
- fatigue score 2, % of patients (12 months after treatment): (58.21%)
- fatigue score 2, number of patients (12 months after treatment): 1000
- fatigue score 4, % of patients (12 months after treatment): (4.42%)
- fatigue score 4, number of patients (12 months after treatment): 76
- fatigue score 6, % of patients (12 months after treatment): (0.70%)
- fatigue score 6, number of patients (12 months after treatment): 12
- pale complexion score 0, number of patients (12 months after treatment): 1011
- pale complexion score 0, percent of patients (12 months after treatment): (58.85%)
- pale complexion score 1, number of patients (12 months after treatment): 590
- pale complexion score 1, percent of patients (12 months after treatment): (34.34%)
- pale complexion score 2, number of patients (12 months after treatment): 104
- pale complexion score 2, percent of patients (12 months after treatment): (6.05%)
- pale complexion score 3, number of patients (12 months after treatment): 13
- pale complexion score 3, percent of patients (12 months after treatment): (0.76%)
- palpitation score 0, number of patients (12 months after treatment): 669
- palpitation score 0, percent of patients (12 months after treatment): (38.94%)
- palpitation score 2, number of patients (12 months after treatment): 892
- palpitation score 2, percent of patients (12 months after treatment): (51.92%)
- palpitation score 4, number of patients (12 months after treatment): 138
- palpitation score 4, percent of patients (12 months after treatment): (8.03%)
- palpitation score 6, number of patients (12 months after treatment): 19
- palpitation score 6, percent of patients (12 months after treatment): (1.11%)
- short breath score 0, % of patients (12 months after treatment): (31.72%)
- short breath score 0, number of patients (12 months after treatment): 545
- short breath score 3, % of patients (12 months after treatment): (57.92%)
- short breath score 3, number of patients (12 months after treatment): 995
- short breath score 6, % of patients (12 months after treatment): (10.07%)
- short breath score 6, number of patients (12 months after treatment): 173
- short breath score 9, % of patients (12 months after treatment): (0.29%)
- short breath score 9, number of patients (12 months after treatment): 5
- spontaneous perspiration score 0, number of patients (12 months after treatment): 845
- spontaneous perspiration score 0, percent of patients (12 months after treatment): (49.19%)
- spontaneous perspiration score 1, number of patients (12 months after treatment): 804
- spontaneous perspiration score 1, percent of patients (12 months after treatment): (46.80%)
- spontaneous perspiration score 2, number of patients (12 months after treatment): 58
- spontaneous perspiration score 2, percent of patients (12 months after treatment): (3.38%)
- spontaneous perspiration score 3, number of patients (12 months after treatment): 11
- spontaneous perspiration score 3, percent of patients (12 months after treatment): (0.64%)
- total score of TCM symptom, Max (12 months after treatment): 37.00
- total score of TCM symptom, Md (12 months after treatment): 8.00
- total score of TCM symptom, Mean (12 months after treatment): 8.41
- total score of TCM symptom, Min (12 months after treatment): 0.00
- change of fatigue 0, % of patients [2]: (47.08%)
- change of fatigue 0, number of patients [2]: 805
- change of fatigue 2, % of patients [2]: (35.38%)
- change of fatigue 2, number of patients [2]: 605
- change of fatigue 4, % of patients [2]: (9.59%)
- change of fatigue 4, number of patients [2]: 164
- change of fatigue 6, % of patients [2]: (1.46%)
- change of fatigue 6, number of patients [2]: 25
- change of fatigue −2, % of patients [2]: (5.85%)
- change of fatigue −2, number of patients [2]: 100
- change of fatigue −4, % of patients [2]: (0.64%)
- change of fatigue −4, number of patients [2]: 11
- change of fatigue −6, % of patients [2]: (0.00%)
- change of fatigue −6, number of patients [2]: 0
- change of pale complexion 0, number of patients [2]: 1202
- change of pale complexion 0, percent of patients [2]: (70.37%)
- change of pale complexion 1, number of patients [2]: 450
- change of pale complexion 1, percent of patients [2]: (26.35%)
- change of pale complexion −1, number of patients [2]: 56
- change of pale complexion −1, percent of patients [2]: (3.28%)
- change of palpitation 0, number of patients [2]: 882
- change of palpitation 0, percent of patients [2]: (51.58%)
- change of palpitation 1, number of patients [2]: 602
- change of palpitation 1, percent of patients [2]: (35.20%)
- change of palpitation 2, number of patients [2]: 102
- change of palpitation 2, percent of patients [2]: (5.96%)
